These results are taken from the supplement of paper PMC6045584.

± gives the standard deviation of the averaged measurements.

Compound in test [1]: CCn1c(C(=O)N(C2CC2)C2CC2)cc2c3c(ncn3C)c(Nc3cc(C)n(C)n3)nc21
The test is described as follows: surviving fraction relative to DMSO-only wells; higher = less growth inhibition. The settings on record: exposure time: 5 days. The procedure, abridged: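 Viability was determined by CellTiter-Glo luminescence, expressed as surviving fraction normalised to the median of DMSO-only wells. The cells were log-phase tumour cell lines seeded at 250–500 per well in 384-well plates and, after 24 hours, exposed continuously for five days to inhibitors at 0.5, 1, 5, 10, 50, 100, 500 and 1000 nM. Three screens per line were run, keeping only lines with replicate Pearson r >0.7 and median Z' >0.3.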

Compound in test [2]: NS(=O)(=O)OC[C@@H]1C[C@@H](n2ccc3c(N[C@H]4CCc5ccccc54)ncnc32)C[C@@H]1O [MLN-4924]
The test is described as follows: area under dose-response curve of surviving fraction (unscaled, Aref=0) (surviving fraction x log10(nM)); higher = more resistant. To be noted: exposure time: 5 days; dose range 0.5-1000 nM. The procedure, abridged:
(§1)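 Each tumour cell line was screened three times in 384-well plates, receiving eight inhibitor concentrations from 0.5 to 1000 nM for five days. CellTiter-Glo luminescence gave viability, normalised to DMSO-only wells. Using the drc R package, surviving fractions were fitted with 3-parameter logistic dose-response curves, and the unscaled activity area over log10 dose (Aref = 0) was taken as the area under the curve.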

Compound in test [3]: CNCc1ccc(-c2[nH]c3cc(F)cc4c3c2CCNC4=O)cc1
The test is described as above. The settings on record: exposure time: 5 days; dose range 0.5-1000 nM. Put shortly: as §1

Compound in test [4]: Cc1nc(Nc2ncc(C(=O)Nc3c(C)cccc3Cl)s2)cc(N2CCN(CCO)CC2)n1 [DASATINIB]
The description is as above. The settings on record: exposure time: 5 days; dose range 0.5-1000 nM. Put shortly: as §1

Compound in test [5]: COc1cc2c(Oc3ccc(NC(=O)C4(C(=O)Nc5ccc(F)cc5)CC4)cc3F)ccnc2cc1OCCCN1CCOCC1 [FORETINIB]
The description is as above. The settings on record: exposure time: 5 days; dose range 0.5-1000 nM. The procedure, abridged:
as §1

Compound in test [6]: Cn1nnc2c(C(N)=O)ncn2c1=O [TEMOZOLOMIDE]
The test is described as above. The settings on record: exposure time: 5 days; dose range 0.5-1000 nM. The procedure, abridged: as §1

For the test system HCC70 BREAST, the surviving fraction worked out at 0.976 ± 0.033 in test [1] (0.5 nM); 0.984 ± 0.15 in test [1] (1 nM); 1.03 ± 0.093 in test [1] (5 nM); 0.97 ± 0.041 in test [1] (10 nM); 1.055 ± 0.0098 in test [1] (50 nM); 1.06 ± 0.055 in test [1] (100 nM). Further, the surviving fraction in test [1] (500 nM) was determined as 0.939 ± 0.026; in test [1] (1000 nM) it was 0.946 ± 0.068. Further, the “area under dose-response curve” value was 2.21 in test [2]; 3.67 in test [3]; 2.81 in test [4]; 3.69 in test [5]; 3.54 in test [6].

For G292 BONE, the surviving fraction in test [1] (0.5 nM) was determined as 0.983 ± 0.044; in test [1] (1 nM), 0.978 ± 0.019; in test [1] (5 nM), 1.01 ± 0.056; in test [1] (10 nM) it was 1.01 ± 0.038; in test [1] (50 nM), 1.03 ± 0.04; in test [1] (100 nM), 1.028 ± 0.0063. For the same test system, the surviving fraction was found to be 0.952 ± 0.021 in test [1] (500 nM) and 0.97 ± 0.036 in test [1] (1000 nM). For the same test system, the “area under dose-response curve” value in test [2] came out at 2.51; in test [3], 3.17; in test [4] it was 1.79; in test [5], 2.74; in test [6], 3.33.

For HCC38 BREAST, the surviving fraction in test [1] (0.5 nM) stood at 1.26 ± 0.17; in test [1] (1 nM), 1.2 ± 0.084; in test [1] (5 nM) it was 1.28 ± 0.02; in test [1] (10 nM) it was 1.14 ± 0.063; in test [1] (50 nM), 1.19 ± 0.11; in test [1] (100 nM), 1.23 ± 0.099. The surviving fraction worked out at 1.22 ± 0.18 in test [1] (500 nM) and 1.24 ± 0.17 in test [1] (1000 nM). In addition, the “area under dose-response curve” value turned out to be 2.17 in test [2]; 2.19 in test [3]; 2.79 in test [4]; 2.93 in test [5]; 4.36 in test [6].

For the test system HMT3552 BREAST, the surviving fraction in test [1] (0.5 nM) was found to be 0.943; in test [1] (1 nM) it was 0.942; in test [1] (5 nM), 1.08; in test [1] (10 nM) it was 1.03; in test [1] (50 nM) it was 1.23; in test [1] (100 nM), 1.18. The results for the surviving fraction in test [1] (500 nM) and in test [1] (1000 nM) were 1.18 and 1.27, respectively. Moreover, the “area under dose-response curve” value in test [2] worked out at 2.14; in test [3] it was 2.94; in test [4], 1.53; in test [5] it was 2.99; in test [6], 3.67.

In the case of CCK81 LARGE INTESTINE, the “area under dose-response curve” value stood at 2.47 in test [2]; 2.66 in test [3]; 1.86 in test [4]; 2.29 in test [5]; 2.52 in test [6].

Take HS578T BREAST: the surviving fraction in test [1] (0.5 nM) was 1.13 ± 0.053; in test [1] (1 nM) it was 0.828 ± 0.05; in test [1] (5 nM), 1 ± 0.12; in test [1] (10 nM), 1.01 ± 0.15; in test [1] (50 nM) it was 0.821 ± 0.06; in test [1] (100 nM) it was 1.09 ± 0.15. The values for the surviving fraction in test [1] (500 nM) and in test [1] (1000 nM) were 0.999 ± 0.049 and 0.989 ± 0.073, respectively. Moreover, the “area under dose-response curve” value stood at 2.37 in test [2], 2.93 in test [3], 1.56 in test [4] and 3.09 in test [6].

On to HMLE3 BREAST, for which the surviving fraction in test [1] (0.5 nM) came to 0.951 ± 0.038; in test [1] (1 nM), 0.942 ± 0.037; in test [1] (5 nM), 0.977 ± 0.09; in test [1] (10 nM), 0.949 ± 0.072; in test [1] (50 nM), 0.953 ± 0.088; in test [1] (100 nM), 0.956 ± 0.061. The surviving fraction in test [1] (500 nM) worked out at 0.914 ± 0.036; in test [1] (1000 nM), 0.906 ± 0.056. Further, the “area under dose-response curve” value turned out to be 2.48 in test [2], 2.46 in test [4], 2.9 in test [5] and 3.48 in test [6].
